This note sets out measurements from US20260365622A1, “CRYSTALLINE CARBAZOLE DERIVATIVE AND METHODS OF MAKING THEREOF” (Raziel Therapeutics Ltd., priority 2022, published 2026).

Common to all, as to type: physicochemical
Data set [1] can be described thus: Karl Fischer (KF) coulometric titration. Particulars: in duplicate. How it is done: Water content of crystalline Compound A was determined using KF Coulometric Titration by either direct addition or liquid extraction.
10-20 mg of crystalline Compound A was weighed into a vial. The solid was then manually introduced into the titration cell of a Mettler Toledo C30 Compact Titrator. The vial was back-weighed after the addition of the solid and the weight of the added solid entered on the instrument. Titration was initiated once the sample had fully dissolved in the cell. The water content was calculated automatically by the instrument as a percentage and the data printed. The analysis was carried out in duplicate.
10-20 mg of crystalline Compound A was weighed into a vial, 10-15 mL of the Coulomat was extracted from the cell of a Mettler Toledo C30 Compact Titrator and added to the vial containing the sample. The solid was dissolved by shaking manually or using ultrasonic bath. When complete dissolution was achieved, the solution was injected back into the cell titrator and the weight of the sample added was entered on the instrument. The water content was calculated automatically by the instrument as a percentage and the data printed. The analysis was carried out in duplicate.

Data set [2] can be described thus: Long-term stability tests of crystalline Compound A Form 1 (Table 6). Particulars: for Purity after storage: HPLC. How it is done:
(§1) XRPD analysis was carried out on a PANalytical X'pert Pro with PIXcel detector (128 channels), scanning the samples between 3 and 35° […]. The material was gently ground (where required) to release any agglomerates and loaded onto a multi-well plate with Kapton or Mylar polymer film to support the sample. The multi-well plate was then placed into the diffractometer and analyzed using Cu K radiation (α1 λ=1.54060 Å; α2 λ=1.54443 Å; β λ=1.39225 Å; α1:α2 ratio=0.5) running in transmission mode (step size 0.0130° 2θ, step time 18.87 s) using 40 kV/40 mA generator settings. Data were visualized and images generated using the HighScore Plus 4.7 desktop application (PANalytical, 2017).
Crystalline Compound A (Form 1) was not changed after storage at 25 °C/60% RH for 36 months or storage at 40 °C/75% RH for 6 months. Purity was determined by HPLC analysis.

The nature of data set [3]: Accelerated stability tests of crystalline Compound A Form 1 (Table 5). The following applies: 7 days; for Purity after storage: HPLC. As to the method:
as §1
Crystalline Compound A (Form 1) was not changed after storage at room temperature for 7 days, storage at 40 °C/75% RH for 7 days, or storage at 80 °C for 7 days. Purity was determined by HPLC analysis.

A short description of data set [4]: Variable humidity X-ray powder diffraction (VH-XRPD). The following applies: desorption phase, 90% RH to 20% RH; starting from Form 2. How it is done:
A known mass of 5-(3,6-dibromo-9H-carbazol-9-yl)-N,N,N-trimethylpentan-1-aminium chloride Form 2 (Compound A Form 2) was analyzed by variable humidity X-ray powder diffraction (VH-XRPD) on a Philips X'Pert Pro Multipurpose diffractometer quipped with a humidity chamber. The samples were scanned between 4 and 35.99° 2θ using Cu K radiation (α1 λ=1.54060 Å; α2=1.54443 Å; β=1.39225 Å; α1:α2 ratio=0.5) running in Bragg-Brentano geometry (step size 0.008° 2θ) using 40 kV/40 mA generator settings. Measurements were performed between 7-90% RH and XRPD scans were collected at each humidity step. The VH-XRPD analysis was conducted an absorption phase between ambient and 90% RH, a desorption phase between 90% RH and 7% RH, and a second absorption phase between 20% and 40% RH.

Data set [5] can be described thus: Conversion of Compound A Form 4 on standing in humid conditions. The following applies: standing at 25 °C and 40 °C and at >30% RH.
Setting [6] is: 25 °C/60% RH (closed container), 24 months.

Structures are written as SMILES.

With `C[N+](C)(C)CCCCCn1c2ccc(Br)cc2c2cc(Br)ccc21.[Cl-]` [Compound A Form 1, 5-(3,6-dibromo-9H-carbazol-9-yl)-N,N,N-trimethylpentan-1-aminium chloride], in data set [1] (listed as Form 1), the Water content is given as 4.38% w/w %. Also, the XRPD after storage entry in data set [2] (25 °C/60% RH (closed container), 3 months) was “Unchanged”; in data set [2] (25 °C/60% RH (closed container), 6 months), “Unchanged”; in data set [2] (25 °C/60% RH (closed container), 12 months), “Unchanged”; in data set [2] (setting [6]), “Unchanged”; in data set [2] (25 °C/60% RH (closed container), 36 months) it was “Unchanged”; in data set [2] (40 °C/75% RH (closed container), 1 month) it was “Unchanged”. In addition, the XRPD after storage result in data set [2] (40 °C/75% RH (closed container), 3 months) is listed as “Unchanged”; in data set [2] (40 °C/75% RH (closed container), 6 months), “Unchanged”; in data set [3] (40 °C/75% RH (open vial)), “Unchanged”; in data set [3] (80 °C (closed vial)) it was “Unchanged”; in data set [3] (Room Temperature (open vial)), “Unchanged”. For the same molecule, the Purity after storage is listed as 99.7% in data set [2] (25 °C/60% RH (closed container), 3 months, 131040 min); 99.7% in data set [2] (25 °C/60% RH (closed container), 6 months, 263520 min); 99.7% in data set [2] (25 °C/60% RH (closed container), 12 months, 525600 min); 99.7% in data set [2] (setting [6]); 99.7% in data set [2] (25 °C/60% RH (closed container), 36 months, 1.5768e+06 min); 99.7% in data set [2] (40 °C/75% RH (closed container), 1 month, 43200 min). Further, the Purity after storage in data set [2] (40 °C/75% RH (closed container), 3 months, 131040 min) was 99.7%; in data set [2] (40 °C/75% RH (closed container), 6 months, 263520 min), 99.8%; in data set [3] (40 °C/75% RH (open vial)), 99.93%; in data set [3] (80 °C (closed vial)), 99.93%; in data set [3] (Room Temperature (open vial)), 99.93%. Also, the Change after storage result is recorded as “not changed” in data set [2] (25 °C/60% RH, 36 months); “not changed” in data set [2] (40 °C/75% RH, 6 months); “not changed” in data set [3] (40 °C/75% RH); “not changed” in data set [3] (80 °C); “not changed” in data set [3] (room temperature).

`C[N+](C)(C)CCCCCn1c2ccc(Br)cc2c2cc(Br)ccc21.[Cl-]` [Compound A Form 2, 5-(3,6-dibromo-9H-carbazol-9-yl)-N,N,N-trimethylpentan-1-aminium chloride]: the Crystalline form observed entry in data set [4] is “Crystalline Form 1 of Compound A was observed during the desorption phase between 90% RH and 20% RH”.

Consider `C[N+](C)(C)CCCCCn1c2ccc(Br)cc2c2cc(Br)ccc21.[Cl-]` [Compound A Form 4, 5-(3,6-dibromo-9H-carbazol-9-yl)-N,N,N-trimethylpentan-1-aminium chloride], for which, in data set [1] (listed as Form 4), the Water content came out at 1% w/w %. Besides, the “Conversion of crystalline form” value in data set [5] was “converted to crystalline Form 1 of Compound A”.

With `C[N+](C)(C)CCCCCn1c2ccc(Br)cc2c2cc(Br)ccc21.[Cl-]` [Compound A Form 3, 5-(3,6-dibromo-9H-carbazol-9-yl)-N,N,N-trimethylpentan-1-aminium chloride], the Water content in data set [1] (listed as Form 3) came to 5.3% w/w %.
